In US20240269095A1, “Rapid Onset Therapeutic Ketosis Enabled by D-BetaHydroxyButyric Acid Systems, Compounds and Methods for Stroke medication co-administration” (American Ketone Therapeutics LLC, priority 2022, published 2024):

How the values were obtained:
[1] = Blood ketone level by Abbott blood ketone meter / test strip after oral free D-BHB; format: in vivo, human
Excerpt: FIG. 9 is a graphical illustration of D-BHB exogenous ketone blood levels. The above Abbot blood ketone meter evidenced by Abbott blood test strip depicts the rapid rise in blood ketone levels from 0.1 mmol/L (absence of ketosis) to 2.7 mmol/L (ketosis) after oral bolus administration of 15 grams of bioidentical free D-BetaHydroxyButyric Acid. The ketone levels depicted are attained in the absence of a salt as well as without ester bonds. It is the free acid D-BHB exogenously administered which is bio-identical to the endogenous D-BHB free acid generated by the human body. The bioidentical ketone body D-BHB is first and foremost an energy source, which is directly and preferentially metabolized by the brain. D-BHB is also active as a signaling mechanism and neuro-inflammation reduction agent, resulting in broad and beneficial brain bioenergy related benefits.
FIG. 10 is a graphical illustration of D-BHB exogenous ketone blood levels. FIG. 10 details rapid ketosis within 45 minutes confirmed by Abbott blood test strip after 10 g D-BHB with palatability agent administered by oral drink. Blood ketone levels document rise from 0.2 mmol/L to 1.8 mmol/L and 0.6 mmol/L to 1.9 mmol/L in a variety of test subjects. FIG. 10 reinforces the fact that supplementation by utilizing free D only BetaHydroxyButyric Acid without ketone salt or ketone ester is a reliable, reproducible method and system for rapid ketone level increase for stroke recovery and maintenance. While amounts of free D only BetaHydroxyButyric Acid taken for stroke effects may vary, it is an anticipated preferred embodiment that levels between 5 and 30 grams of D only BetaHydroxyButyric Acid are taken as needed for optimum recovery. Alternate embodiments may include lower or higher amounts, however, experimental evidence has confirmed optimal administration in this range for a wide variety of other applications.

[2] = Stated properties of free D-BHB (Table 1); design: species or system human
[3] = Continuous glucose monitoring (Abbot Libre CGM) with carbohydrate challenge; format: in vivo, human; details: 10 g given 45 minutes before 50 g carbohydrate ingestion; compared with unsupplemented ingestion
Excerpt: FIG. 11 is a graphical illustration of continuous monitoring of body glucose levels. FIG. 11 depicts continuous glucose monitoring levels with carbohydrate challenge documented by Abbot Libre Continuous Glucose Monitoring (CGM) device. In this illustrative embodiment, glucose levels from a 50 g carbohydrate ingestion are depicted unaided by free D-BetaHydroxyButyric Acid on the left and repeated the following day with two 50 g carbohydrate ingestions accompanied by 10 g free D-BetaHydroxyButyric Acid administered 45 minutes before the carbohydrate insult. […] As free D-BetaHydroxyButyric Acid can lower glucose while rapidly increasing ketone levels, it is believed that obtaining high ketones while lowering glucose will yield additional stroke recovery benefits for high glucose sensitive individuals suffering from stroke.

[4] = Continuous Ketone Meter (CKM) monitoring of body ketone levels and deep sleep; format: in vivo, human; details: 5 grams consumed 45 minutes prior to bedtime
Excerpt: FIG. 12 is a graphical illustration of continuous monitoring of body ketone levels resulting in improved deep sleep time due to enhanced D-BHB levels according to the claimed invention. It is noteworthy that consumption of even small amounts of free D-BetaHydroxy Butyric Acid can give rise to therapeutic ketosis levels as measured by Continuous Ketone Meter (CKM). […] While free D-BetaHydroxyButyric Acid is not a sedative, even small amounts can greatly improve deep sleep quantity and quality. It is an intended and foreseeable embodiment application to increase deep sleep with free D-BetaHydroxyButyric Acid with the aim of improving stroke recovery and enhanced brain resiliency.

[5] = compared with ketone salts, literature table; cited from earlier work

SMILES: C[C@@H](O)CC(=O)O [free D-BetaHydroxyButyric Acid, D-β-HydroxyButyric Acid]
- time to ketosis ([1]; 10 g D-BHB with palatability agent by oral drink): ≤ 45 min
- blood ketone level after administration ([1]; 10 g with palatability agent by oral drink, test subject rising from 0.2 mmol/L): 1.8 mmol/L
- blood ketone level after administration ([1]; 10 g with palatability agent by oral drink, test subject rising from 0.6 mmol/L): 1.9 mmol/L
- blood ketone level after administration ([1]; oral bolus of 15 grams, rise from 0.1 mmol/L (absence of ketosis)): 2.7 mmol/L
- Induces Ketoacidosis [2]: Induces Ketoacidosis: No
- Metabolism [2]: Metabolism: Rapid, minutes
- glucose spike after carbohydrate ingestion [3]: rapid glucose spike depicted in the unsupplemented ingestion is not found
- deep sleep quantity [4]: enhance the quantity of deep sleep obtained
- increase in ketone level (CKM) [4]: 1.5 mmol/L

SMILES: C[C@@H](O)CCOC(=O)C[C@@H](C)O [ketone ester, (R)-3-hydroxybutyl (R)-3-hydroxybutyrate]
- ketone level response [5]: higher ketone level response
